{
  "source": "ChEMBL document CHEMBL5465560",
  "about": "“Selectivity Literature for EUbOPEN Chemogenomic Library” (2024)",
  "key": {"[1]": {"target": "T1, Ephrin type-A receptor 8 (Homo sapiens) (UniProt P29322)", "T1 sequence (whole entry)": "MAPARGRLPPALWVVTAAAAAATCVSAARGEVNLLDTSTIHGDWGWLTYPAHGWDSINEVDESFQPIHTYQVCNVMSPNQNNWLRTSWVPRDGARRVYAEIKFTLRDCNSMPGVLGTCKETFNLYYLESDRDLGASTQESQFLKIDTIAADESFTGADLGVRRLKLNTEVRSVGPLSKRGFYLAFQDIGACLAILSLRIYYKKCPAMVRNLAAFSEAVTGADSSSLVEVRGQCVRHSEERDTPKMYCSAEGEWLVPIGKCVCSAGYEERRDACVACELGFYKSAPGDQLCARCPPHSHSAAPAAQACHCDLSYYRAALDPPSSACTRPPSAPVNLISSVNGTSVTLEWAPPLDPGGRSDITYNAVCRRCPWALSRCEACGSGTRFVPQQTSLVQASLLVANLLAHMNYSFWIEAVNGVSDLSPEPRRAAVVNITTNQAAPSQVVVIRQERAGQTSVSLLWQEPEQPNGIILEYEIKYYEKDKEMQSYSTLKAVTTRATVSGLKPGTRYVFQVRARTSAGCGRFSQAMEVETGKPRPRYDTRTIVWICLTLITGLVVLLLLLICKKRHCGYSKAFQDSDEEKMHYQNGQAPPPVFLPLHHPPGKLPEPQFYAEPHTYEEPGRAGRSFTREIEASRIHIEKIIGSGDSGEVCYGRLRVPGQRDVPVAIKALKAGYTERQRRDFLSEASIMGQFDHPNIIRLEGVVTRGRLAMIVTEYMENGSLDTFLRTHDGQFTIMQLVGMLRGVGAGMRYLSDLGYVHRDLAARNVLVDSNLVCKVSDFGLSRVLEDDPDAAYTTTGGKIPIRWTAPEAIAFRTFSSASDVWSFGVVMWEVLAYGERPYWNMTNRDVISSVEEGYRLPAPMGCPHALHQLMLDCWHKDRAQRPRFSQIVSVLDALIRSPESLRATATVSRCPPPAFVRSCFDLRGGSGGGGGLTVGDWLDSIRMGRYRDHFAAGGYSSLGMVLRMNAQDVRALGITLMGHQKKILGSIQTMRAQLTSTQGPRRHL", "assay": "Selectivity interaction (Kinase panel (Invitrogen)) EUB0000639a EPHA8", "conditions": "at 200 nM"}, "[2]": {"target": "Fibroblast growth factor receptor 3 (Homo sapiens, UniProt P22607)", "sequence (P22607 23-806 limits assumed)": "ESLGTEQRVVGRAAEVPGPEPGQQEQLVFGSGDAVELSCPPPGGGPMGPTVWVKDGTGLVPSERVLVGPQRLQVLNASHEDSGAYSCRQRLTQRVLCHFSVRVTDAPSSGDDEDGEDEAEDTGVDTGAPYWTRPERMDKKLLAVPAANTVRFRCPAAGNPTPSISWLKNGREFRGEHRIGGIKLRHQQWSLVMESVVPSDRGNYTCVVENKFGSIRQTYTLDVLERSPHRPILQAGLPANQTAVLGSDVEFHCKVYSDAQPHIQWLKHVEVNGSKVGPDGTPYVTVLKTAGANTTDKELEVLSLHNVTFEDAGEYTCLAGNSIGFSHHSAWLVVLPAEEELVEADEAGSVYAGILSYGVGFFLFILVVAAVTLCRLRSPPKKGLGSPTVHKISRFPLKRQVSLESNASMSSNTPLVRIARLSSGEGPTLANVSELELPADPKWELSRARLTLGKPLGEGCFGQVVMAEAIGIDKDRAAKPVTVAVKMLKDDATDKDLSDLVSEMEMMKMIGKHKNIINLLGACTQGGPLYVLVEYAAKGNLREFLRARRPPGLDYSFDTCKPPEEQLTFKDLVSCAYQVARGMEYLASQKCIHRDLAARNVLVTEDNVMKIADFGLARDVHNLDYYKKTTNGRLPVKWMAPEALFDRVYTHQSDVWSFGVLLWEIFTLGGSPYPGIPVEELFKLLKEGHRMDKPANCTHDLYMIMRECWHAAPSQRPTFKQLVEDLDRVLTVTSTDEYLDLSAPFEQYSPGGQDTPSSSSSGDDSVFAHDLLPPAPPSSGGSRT", "assay": "Selectivity interaction (ProQinase) EUB0000171b FGFR3", "conditions": "at 5 µM"}, "[3]": {"target": "T2, Serine/threonine-protein kinase TBK1 (Homo sapiens) (UniProt Q9UHD2)", "T2 sequence (whole entry)": "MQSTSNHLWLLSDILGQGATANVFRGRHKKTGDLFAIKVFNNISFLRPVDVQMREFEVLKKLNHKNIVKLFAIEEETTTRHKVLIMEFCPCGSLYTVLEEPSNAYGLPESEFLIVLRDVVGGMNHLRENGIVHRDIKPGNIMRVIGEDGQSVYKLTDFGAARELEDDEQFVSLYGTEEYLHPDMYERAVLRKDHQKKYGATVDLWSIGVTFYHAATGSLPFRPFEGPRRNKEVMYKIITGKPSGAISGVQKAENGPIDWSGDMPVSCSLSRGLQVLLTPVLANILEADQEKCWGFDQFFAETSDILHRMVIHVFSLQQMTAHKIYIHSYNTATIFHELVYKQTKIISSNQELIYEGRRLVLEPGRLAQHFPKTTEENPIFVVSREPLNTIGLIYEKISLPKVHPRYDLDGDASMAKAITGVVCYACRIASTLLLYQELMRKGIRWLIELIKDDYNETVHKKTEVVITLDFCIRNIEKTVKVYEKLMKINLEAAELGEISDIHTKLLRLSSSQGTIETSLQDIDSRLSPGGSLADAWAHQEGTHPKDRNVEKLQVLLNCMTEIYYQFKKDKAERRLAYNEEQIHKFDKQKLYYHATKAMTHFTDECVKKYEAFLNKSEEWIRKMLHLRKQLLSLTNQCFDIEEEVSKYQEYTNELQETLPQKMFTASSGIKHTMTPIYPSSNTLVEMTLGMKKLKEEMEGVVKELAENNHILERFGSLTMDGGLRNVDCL", "assay": "Selectivity interaction (Kinase screening (Nanosyn)) EUB0000604a TBK1"}, "[4]": {"target": "Tyrosine-protein kinase BTK (Homo sapiens, UniProt Q06187)", "sequence (Q06187 whole entry)": "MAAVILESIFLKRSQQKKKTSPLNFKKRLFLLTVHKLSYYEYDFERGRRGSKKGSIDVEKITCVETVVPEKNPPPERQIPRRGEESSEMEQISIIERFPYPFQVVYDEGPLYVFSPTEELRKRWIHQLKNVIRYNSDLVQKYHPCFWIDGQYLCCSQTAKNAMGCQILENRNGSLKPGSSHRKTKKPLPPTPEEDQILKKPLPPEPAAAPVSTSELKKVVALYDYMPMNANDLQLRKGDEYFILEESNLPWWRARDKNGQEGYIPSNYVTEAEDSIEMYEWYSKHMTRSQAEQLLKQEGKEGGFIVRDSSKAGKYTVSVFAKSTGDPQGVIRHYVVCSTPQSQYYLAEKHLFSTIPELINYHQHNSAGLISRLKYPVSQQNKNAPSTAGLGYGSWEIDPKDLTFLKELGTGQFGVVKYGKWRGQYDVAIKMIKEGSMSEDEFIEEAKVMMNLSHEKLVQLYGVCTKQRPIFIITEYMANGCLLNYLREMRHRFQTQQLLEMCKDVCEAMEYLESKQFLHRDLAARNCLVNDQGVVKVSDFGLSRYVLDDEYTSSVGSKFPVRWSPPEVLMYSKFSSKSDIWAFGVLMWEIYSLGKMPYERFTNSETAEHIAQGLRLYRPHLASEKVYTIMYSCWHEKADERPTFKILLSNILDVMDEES", "assay": "Selectivity interaction (Millipore kinase profiler) EUB0000124b BTK", "conditions": "at 10 µM"}, "[5]": {"target": "T3, Serine/threonine-protein kinase DCLK1 (Homo sapiens) (UniProt O15075)", "T3 sequence (whole entry)": "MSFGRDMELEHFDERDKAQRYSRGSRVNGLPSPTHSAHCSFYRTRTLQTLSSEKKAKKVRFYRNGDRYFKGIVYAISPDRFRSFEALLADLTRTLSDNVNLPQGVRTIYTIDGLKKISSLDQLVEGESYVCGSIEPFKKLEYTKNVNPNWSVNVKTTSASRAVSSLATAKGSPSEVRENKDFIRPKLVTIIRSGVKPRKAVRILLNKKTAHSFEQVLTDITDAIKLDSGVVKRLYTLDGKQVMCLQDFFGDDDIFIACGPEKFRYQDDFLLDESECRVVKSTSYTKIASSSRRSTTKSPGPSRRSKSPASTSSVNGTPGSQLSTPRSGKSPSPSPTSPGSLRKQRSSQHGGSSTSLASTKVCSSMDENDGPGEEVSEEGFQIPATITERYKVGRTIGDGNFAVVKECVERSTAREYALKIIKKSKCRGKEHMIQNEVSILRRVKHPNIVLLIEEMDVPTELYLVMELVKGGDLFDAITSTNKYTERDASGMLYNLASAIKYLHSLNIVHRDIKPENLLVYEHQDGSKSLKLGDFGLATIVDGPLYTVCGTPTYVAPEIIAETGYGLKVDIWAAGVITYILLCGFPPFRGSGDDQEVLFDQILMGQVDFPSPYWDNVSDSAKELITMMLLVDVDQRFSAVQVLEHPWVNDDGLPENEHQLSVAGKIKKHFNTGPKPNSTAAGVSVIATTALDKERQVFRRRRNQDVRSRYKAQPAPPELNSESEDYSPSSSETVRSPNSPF", "assay": "Selectivity interaction (KinomeScan (DiscoverX)) EUB0000655a DCLK1", "conditions": "at 10 µM"}, "[6]": {"target": "Cyclin-dependent kinase 13 (Homo sapiens, UniProt Q14004)", "sequence (Q14004 whole entry, looked up)": "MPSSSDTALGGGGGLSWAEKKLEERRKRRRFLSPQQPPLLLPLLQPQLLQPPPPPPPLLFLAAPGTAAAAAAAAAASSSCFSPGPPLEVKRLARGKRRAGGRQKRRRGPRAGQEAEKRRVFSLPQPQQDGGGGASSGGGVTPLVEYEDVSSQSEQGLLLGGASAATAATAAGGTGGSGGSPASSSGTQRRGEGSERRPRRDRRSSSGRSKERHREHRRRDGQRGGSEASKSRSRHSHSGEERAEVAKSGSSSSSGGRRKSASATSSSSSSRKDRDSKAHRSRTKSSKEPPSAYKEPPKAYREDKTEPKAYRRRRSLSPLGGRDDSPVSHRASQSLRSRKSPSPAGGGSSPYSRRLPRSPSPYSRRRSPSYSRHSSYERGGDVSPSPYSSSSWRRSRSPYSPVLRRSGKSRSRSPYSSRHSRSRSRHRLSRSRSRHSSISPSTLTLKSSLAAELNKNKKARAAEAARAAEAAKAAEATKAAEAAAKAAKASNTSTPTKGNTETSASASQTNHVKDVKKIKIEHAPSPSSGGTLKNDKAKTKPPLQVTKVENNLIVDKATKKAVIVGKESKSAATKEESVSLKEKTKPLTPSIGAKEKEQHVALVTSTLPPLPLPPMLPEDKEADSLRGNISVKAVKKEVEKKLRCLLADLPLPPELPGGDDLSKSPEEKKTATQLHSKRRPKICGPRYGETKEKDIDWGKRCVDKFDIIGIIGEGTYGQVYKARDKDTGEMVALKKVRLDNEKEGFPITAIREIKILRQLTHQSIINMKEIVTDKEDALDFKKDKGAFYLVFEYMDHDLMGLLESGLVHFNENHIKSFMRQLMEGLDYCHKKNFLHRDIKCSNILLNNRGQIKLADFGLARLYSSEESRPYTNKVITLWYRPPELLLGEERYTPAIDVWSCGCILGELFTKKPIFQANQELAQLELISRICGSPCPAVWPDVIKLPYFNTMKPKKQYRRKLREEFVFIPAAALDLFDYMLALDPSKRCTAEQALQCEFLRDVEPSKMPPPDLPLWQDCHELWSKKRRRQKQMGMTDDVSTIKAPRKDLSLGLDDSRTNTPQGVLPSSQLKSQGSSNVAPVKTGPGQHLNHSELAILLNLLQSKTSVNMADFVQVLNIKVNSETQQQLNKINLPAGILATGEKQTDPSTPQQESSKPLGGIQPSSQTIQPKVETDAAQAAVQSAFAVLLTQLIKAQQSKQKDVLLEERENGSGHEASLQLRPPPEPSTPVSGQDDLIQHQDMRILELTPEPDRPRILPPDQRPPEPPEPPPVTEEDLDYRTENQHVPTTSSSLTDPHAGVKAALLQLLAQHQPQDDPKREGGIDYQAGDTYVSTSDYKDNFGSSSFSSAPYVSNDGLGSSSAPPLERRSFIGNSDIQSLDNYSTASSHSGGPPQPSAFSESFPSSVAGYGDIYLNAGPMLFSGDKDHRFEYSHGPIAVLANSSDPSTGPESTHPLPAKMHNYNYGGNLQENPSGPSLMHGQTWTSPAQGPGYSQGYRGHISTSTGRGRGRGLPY", "assay": "Selectivity interaction (KinomeScan (DiscoverX)) EUB0000092b CDK13", "conditions": "at 10 µM"}, "[7]": {"target": "Tyrosine-protein kinase Yes (Homo sapiens) (UniProt P07947)", "sequence (P07947 2-543 limits assumed)": "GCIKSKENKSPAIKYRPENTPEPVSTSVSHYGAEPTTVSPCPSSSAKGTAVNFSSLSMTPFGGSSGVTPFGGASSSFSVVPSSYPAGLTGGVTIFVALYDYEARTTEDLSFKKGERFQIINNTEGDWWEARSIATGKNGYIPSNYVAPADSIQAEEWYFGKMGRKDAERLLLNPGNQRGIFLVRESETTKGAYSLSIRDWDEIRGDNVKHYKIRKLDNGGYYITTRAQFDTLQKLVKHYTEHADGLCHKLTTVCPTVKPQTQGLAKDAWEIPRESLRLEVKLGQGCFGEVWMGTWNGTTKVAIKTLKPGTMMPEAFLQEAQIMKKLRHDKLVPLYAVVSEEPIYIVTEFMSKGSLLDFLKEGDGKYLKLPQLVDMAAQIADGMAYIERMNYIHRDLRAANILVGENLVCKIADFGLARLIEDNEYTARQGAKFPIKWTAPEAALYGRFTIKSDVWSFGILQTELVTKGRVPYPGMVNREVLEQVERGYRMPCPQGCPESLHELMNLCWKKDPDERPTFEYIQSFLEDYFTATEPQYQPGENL", "assay": "Selectivity interaction (KinomeScan (DiscoverX)) EUB0000618a YES1", "conditions": "at 10 µM"}},
  "data": [
    {"smiles": "CC[C@@H]1[C@H](F)C(=O)N[C@@H]1COc1nccc2cc(C(N)=O)c(OC)cc12", "note": "[ZIMLOVISERTIB]", "values": [
      {"measurement": "% of inhibition", "setting": "[1]", "result": -0.726, "unit": "%"}
    ]},
    {"smiles": "C=CC(=O)Nc1cccc(C(=O)Nc2ccc(Nc3cc(-c4[nH]c(SC)nc4C)ccn3)cc2)c1", "values": [
      {"measurement": "% of control", "setting": "[2]", "result": 91, "unit": "%"}
    ]},
    {"smiles": "Cc1cnc(Nc2ccc(F)cc2Cl)nc1-c1c[nH]c(C(=O)N[C@H](CO)c2cccc(Cl)c2)c1", "values": [
      {"measurement": "% of inhibition", "setting": "[3]", "result": 3, "unit": "%"}
    ]},
    {"smiles": "CC(=O)Nc1cccc(-n2c(=O)n(C3CC3)c(=O)c3c(Nc4ccc(I)cc4F)n(C)c(=O)c(C)c32)c1", "values": [
      {"measurement": "% of control", "setting": "[4]", "result": 104, "unit": "%"}
    ]},
    {"smiles": "CN(C)CCOc1ccc(-c2nc(-c3ccncc3)c(-c3ccc4c(c3)CC/C4=N\\O)[nH]2)cc1", "values": [
      {"measurement": "% of control", "setting": "[5]", "result": 88, "unit": "%"}
    ]},
    {"smiles": "CCC(=O)N1CCN(c2ccc(-n3c(=O)ccc4cnc5ccc(-c6cnc7ccccc7c6)cc5c43)cc2C(F)(F)F)CC1", "values": [
      {"measurement": "% of control", "setting": "[6]", "result": 80, "unit": "%"}
    ]},
    {"smiles": "O[C@H]1CC[C@H](Nc2ncc3nc(Nc4c(F)cc(F)cc4F)n([C@H]4CCOC4)c3n2)CC1", "values": [
      {"measurement": "% of control", "setting": "[7]", "result": 98, "unit": "%"}
    ]}
  ]
}
